These results are taken from article PMC3183320 (Protein expression and purification, 2011).

Entries after “also recorded” stand apart in the source; their conditions may differ.

In data set [1] the target is T1, BPV1 E6 (Bovine papillomavirus type 1, UniProt P06931). In kind it is physicochemical. To be noted: peptide provided during BPV1 E6 biosynthesis.
For data set [2], the target named is T1, BPV1 E6. Kind of data set: SPR. In kind it is binding.
The target in the next data set is HPV16 E6. As to conditions: read-out: affinity of HPV16 E6 / E6AP; ref [29]; cited from earlier work.
Data set [3] deals with T2, BPV1 E6 released from MBP-LXXLL-tevs-E6 by TEV protease (Bovine Papillomavirus Type 1, UniProt P06931 1-137).
T2 sequence: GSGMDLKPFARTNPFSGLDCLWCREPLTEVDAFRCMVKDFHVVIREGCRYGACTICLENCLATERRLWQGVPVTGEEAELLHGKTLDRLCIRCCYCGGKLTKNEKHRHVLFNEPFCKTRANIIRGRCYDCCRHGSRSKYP
Kind of data set: SEC.

The target in another data set is T3, paxillin LXXLL peptide (Homo sapiens, UniProt P49023).
T3 chain: MDDLDALLADLESTT
As to the kind of experiment: SPR.

For the molecule “EFTMDDLDALLADKE [paxillin LXXLL peptide]”, the “effect on BPV1 E6 protein solubility (in words)” value on BPV1 E6 [1] is given as “greatly enhanced the protein’s solubility”.

On to DDLDALLADKE [paxillin], for which the “dissociation phase (in words)” value on BPV1 E6 [2] (SPR sensorgrams, paxillin as compared to E6AP) was “remarkably slow dissociation phase; also recorded: slow dissociation rate kinetics”. Further, on BPV1 E6 [2] (SPR, as compared to other E6/peptide interactions), the “affinity for BPV1 E6 (in words)” value is recorded as “significantly higher affinity as compared to other E6/peptide interactions; also recorded: significantly stronger; also recorded: high affinity”.

Turning to ESSELTLQELLGEER [E6AP], the Kd on HPV16 E6 was 4 µM.

B1: MBP-fused LXXLL peptide (MBP-LXXLL-tevs left after TEV digestion of MBP-LXXLL-tevs-E6) (peptide)
chain: MDDLDALLADGGSGSNENLYFQ
For B1, the binding result in data set [3] is given as “binds”.

B2: synthetic peptide derived from paxillin (LXXLL synthetic peptide) (peptide)
peptide: EFTMDDLDALLADKE
Consider B2, for which, in data set [3], the binding result was “binds”.

B3: E6 (protein)
chain: MDLKPFARTNPFSGLDCLWCREPLTEVDAFRCMVKDFHVVIREGCRYGACTICLENCLATERRLWQGVPVTGEEAELLHGKTLDRLCIRCCYCGGKLTKNEKHRHVLFNEPFCKTRANIIRGRCYDCCRHGSRSKYP
In turn, B3 came in with a Kd with paxillin LXXLL peptide of 0.0351 µM.
